# Values joined by “and” are separate entries in the source; they are usually repeats but may differ in a detail not shown here. Equal entries are not always repeated. Where two headings read alike, the source gives them in different places.
# Legend:
# [1] = tested on: Mycoplasma genitalium; assay: microbe, parasite or virus in culture; format: cell-based; settings: for MIC: Mycoplasmoides genitalium
# [2] = tested on: Mycoplasma pneumoniae; assay: Broth microdilution MIC assay (CLSI M43-A), M. pneumoniae; format: cell-based; settings: for MIC50 / MIC90 / MIC Range: M. pneumoniae isolates, n = 12
# [3] = tested on: Ureaplasma species; assay: microbe, parasite or virus in culture; format: cell-based, Ureaplasma urealyticum, Ureaplasma parvum; settings: for MIC50 / MIC90 / MIC: Ureaplasma; for MIC: ATCC33175
# [4] = tested on: Mycoplasma hominis; assay: microbe, parasite or virus in culture; format: cell-based
# [5] = tested on: Ureaplasma species; settings: Ureaplasma urealyticum ATCC 33175; CLSI M43-A acceptable QC range; cited from earlier work
# [6] = tested on: Bacillus anthracis; assay: microbe, parasite or virus in culture; format: cell-based
# [7] = tested on: Francisella tularensis; assay: microbe, parasite or virus in culture; format: cell-based
# [8] = tested on: Brucella melitensis; assay: microbe, parasite or virus in culture; format: cell-based
# [9] = tested on: Burkholderia mallei; assay: microbe, parasite or virus in culture; format: cell-based; settings: Burkholderia mallei
# [10] = tested on: Brucella suis; assay: microbe, parasite or virus in culture; format: cell-based
# [11] = tested on: Yersinia pestis; assay: microbe, parasite or virus in culture; format: cell-based
# [12] = tested on: Burkholderia pseudomallei; assay: microbe, parasite or virus in culture; format: cell-based
# [13] = M. pneumoniae M-129 QC Strain ATCC 29342-B7, read-out: MIC
# [14] = M. pneumoniae isolate 51494, read-out: MIC
# [15] = M. pneumoniae isolate 53706, read-out: MIC
# [16] = M. pneumoniae isolate 53938, read-out: MIC
# [17] = M. pneumoniae isolate 54484, macrolide-resistant, read-out: MIC
# [18] = M. pneumoniae isolate 54506, macrolide-resistant, read-out: MIC
# [19] = M. pneumoniae isolate 55246, read-out: MIC
# [20] = M. pneumoniae isolate 55612, read-out: MIC
# [21] = M. pneumoniae isolate 57807, read-out: MIC
# [22] = M. pneumoniae isolate 58188, read-out: MIC
# [23] = M. pneumoniae isolate 58772, read-out: MIC
# [24] = M. pneumoniae isolate 59597, read-out: MIC
# [25] = M. pneumoniae isolate 59598, read-out: MIC
structure (smiles),measurement,setting,value
CC[C@H]1OC(=O)[C@H](C)[C@@H](O[C@H]2C[C@@](C)(OC)[C@@H](O)[C@H](C)O2)[C@H](C)[C@@H](O[C@@H]2O[C@H](C)C[C@H](N(C)C)[C@H]2O)[C@](C)(O)C[C@@H](C)CN(C)[C@H](C)[C@@H](O)[C@]1(C)O [Azithromycin],MIC Range,[1],<0.001 µg/mL
same,MIC,[1],< 0.001 µg/mL
same,MIC,[1]; ATCC33530,< 0.001 µg/mL
same,MIC,[1]; ATCC49895,< 0.001 µg/mL
same,MIC,[1]; ATCC49899,< 0.001 µg/mL
same,MIC,[2]; [13],< 0.001 µg/mL
same,MIC,[2]; [14],< 0.001 µg/mL
same,MIC,[2]; [15],< 0.001 µg/mL
same,MIC,[2]; [16],< 0.001 µg/mL
same,MIC,[2]; [17],32 µg/mL
same,MIC,[2]; [18],16 µg/mL
same,MIC,[2]; [19],< 0.001 µg/mL
same,MIC,[2]; [20],< 0.001 µg/mL
same,MIC,[2]; [21],< 0.001 µg/mL
same,MIC,[2]; [22],< 0.001 µg/mL
same,MIC,[2]; [23],< 0.001 µg/mL
same,MIC,[2]; [24],< 0.001 µg/mL
same,MIC,[2]; [25],< 0.001 µg/mL
same,MIC50,[2],< 0.001 µg/mL
same,MIC90,[2],16 µg/mL
same,MIC Range,[2],<0.001-32 ^ μg/mL
same,MIC,"[2]; most M. pneumoniae isolates, read-out: MICs of most isolates",< 0.001 µg/mL
same,MICs of two macrolide-resistant strains,[2]; two M. pneumoniae strains with mutations in 23S ribosomal RNA,32 µg/mL
same,MIC,"[2]; two M. pneumoniae strains with mutations in 23S ribosomal RNA, read-out: MICs of two macrolide-resistant strains",16 µg/mL
same,MIC Range,[3],1 to 32 µg/mL
same,MIC50,[3],2 µg/mL
same,MIC90,[3],4 µg/mL
same,MIC,[3],2 µg/mL
same,MIC Range,[4],1 to 8 µg/mL
same,MIC50,[4]; Metamycoplasma hominis,4 µg/mL
same,MIC90,[4]; Metamycoplasma hominis,4 µg/mL
same,MIC Limits for Quality Control Strain,[5],0.5 to 8 µg/mL
O=C(N[C@H](CO)[C@H](O)c1ccc([N+](=O)[O-])cc1)C(Cl)Cl [Chloramphenicol],MIC,[6],4 µg/mL
same,MIC,[6]; Bacillus anthracis,8 µg/mL
same,MIC,[7],1 µg/mL
same,MIC,[7]; Francisella tularensis,2 µg/mL
"C[C@@H]1CN2c3c(cc4c(N5C(=O)OC[C@@H]5C)noc4c3F)CC3(C(=O)NC(=O)NC3=O)[C@H]2[C@H](C)O1 [Compound 1, (2R,4S,4aS)-11-fluoro-2,4-dimethyl-8-[(4S)-4-methyl-2-oxo-1,3-oxazolidin-3-yl]-1,2,4,4a-tetrahydro-2′H,6H-spiro[1,4-oxazino[4,3-a][1,2]oxazolo[4,5-g]quinoline-5,5′-pyrimidine]-2′,4′,6′(1′H,3′H)-trione]",MIC,[1],0.5 µg/mL
same,MIC,[1]; ATCC33530,0.5 µg/mL
same,MIC,[1]; ATCC49895,1 µg/mL
same,MIC,[1]; ATCC49899,0.5 µg/mL
same,MIC90 relative to doxycycline (fold higher),[2]; M. pneumoniae,4 fold
same,MIC,[2]; [13],0.5 µg/mL
same,MIC,[2]; [14],0.5 µg/mL
same,MIC,[2]; [15],0.5 µg/mL
same,MIC,[2]; [16],0.5 µg/mL
same,MIC,[2]; [17],0.5 µg/mL
same,MIC,[2]; [18],0.5 µg/mL
same,MIC,[2]; [19],1 µg/mL
same,MIC,[2]; [20],1 µg/mL
same,MIC,[2]; [21],0.5 µg/mL
same,MIC,[2]; [22],0.5 µg/mL
same,MIC,[2]; [23],0.5 µg/mL
same,MIC,[2]; [24],0.5 µg/mL
same,MIC,[2]; [25],0.5 µg/mL
same,MIC50,[2],0.5 µg/mL
same,MIC90,[2],1 µg/mL
same,in vitro potency against macrolide-resistant versus macrolide-susceptible isolates,[2]; two macrolide-resistant M. pneumoniae isolates,maintained in vitro potency
same,MIC,[8],16 µg/mL
same,MIC,[8]; Brucella melitensis,8 µg/mL
same,MIC90 potency relative to azithromycin (fold more potent / lower MIC90),[3],4 fold
same,MIC range for isolates containing tetM,[3],0.5 to 2 µg/mL
same,"difference in MICs, levofloxacin-resistant versus levofloxacin-susceptible isolates",[3],no difference
same,MIC50,[3],0.5 µg/mL
same,MIC90,[3],1 µg/mL
same,MIC,[3],0.5 µg/mL
same,MIC90,[9],32 µg/mL
same,MIC,[10],1 µg/mL
same,MIC Range,[10],1 to 2 µg/mL
same,MIC,[10]; Brucella suis,2 µg/mL
same,MIC50,[10]; Brucella suis,1 µg/mL
same,MIC90,[10]; Brucella suis,2 µg/mL
same,MIC90 relative to levofloxacin (fold greater),[4],16 fold
same,MIC Range,[4],1 to 8 µg/mL
same,effect of presence of tetM on MICs,[4],not affected by the presence of tetM
same,MIC50,[4]; Metamycoplasma hominis,2 µg/mL
same,MIC90,[4]; Metamycoplasma hominis,4 µg/mL
same,MIC,"[4]; Metamycoplasma hominis, read-out: maximum MIC value",8 µg/mL
same,MIC50,[11],4 µg/mL
same,MIC50,[11]; Yersinia pestis,2 µg/mL
same,MIC,[12],64 µg/mL
same,MIC90,[12],>64 µg/mL
same,MIC,[12]; Burkholderia pseudomallei,32 µg/mL
same,MIC50,[12]; Burkholderia pseudomallei,32 µg/mL
same,MIC90,[12]; Burkholderia pseudomallei,64 µg/mL
same,MIC90,[6],1 µg/mL
same,MIC Range,[6],0.12 to 1 µg/mL and 0.12 to 4 µg/mL
same,MIC50,[6]; Bacillus anthracis,0.25 µg/mL
same,MIC90,[6]; Bacillus anthracis,0.5 µg/mL
same,MIC,[7],8 µg/mL
same,MIC Range,[7],8 to 16 µg/mL
same,MIC,[7]; Francisella tularensis,16 µg/mL
same,MIC50,[7]; Francisella tularensis,16 µg/mL
same,MIC90,[7]; Francisella tularensis,16 µg/mL
C[C@H]1c2cccc(O)c2C(=O)C2=C(O)[C@]3(O)C(=O)C(C(N)=O)=C(O)[C@@H](N(C)C)[C@@H]3[C@@H](O)[C@@H]21 [Doxycycline],MIC Range,[1],0.25 to 1 µg/mL
same,MIC,[1],1 µg/mL
same,MIC,[1]; ATCC33530,0.25 µg/mL
same,MIC,[1]; ATCC49895,0.25 µg/mL
same,MIC,[1]; ATCC49899,0.5 µg/mL
same,MIC,[2]; [13],0.5 µg/mL
same,MIC,[2]; [14],0.25 µg/mL
same,MIC,[2]; [15],0.25 µg/mL
same,MIC,[2]; [16],0.25 µg/mL
same,MIC,[2]; [17],0.25 µg/mL
same,MIC,[2]; [18],0.25 µg/mL
same,MIC,[2]; [19],0.25 µg/mL
same,MIC,[2]; [20],0.25 µg/mL
same,MIC,[2]; [21],0.25 µg/mL
same,MIC,[2]; [22],0.125 µg/mL
same,MIC,[2]; [23],0.5 µg/mL
same,MIC,[2]; [24],0.25 µg/mL
same,MIC,[2]; [25],0.25 µg/mL
same,MIC50,[2],0.25 µg/mL
same,MIC90,[2],0.25 µg/mL
same,MIC Range,[2],0.125 to 0.5 µg/mL
same,MIC,[8],0.125 µg/mL
same,MIC,[8]; Brucella melitensis,0.25 µg/mL
same,MIC90 activity relative to Compound 1 (fold more active),[3],8 fold
same,MIC Range,[3],0.016 to 8 µg/mL
same,MIC range for isolates containing tetM,[3],4 to 8 µg/mL
same,MIC50,[3],0.125 µg/mL
same,MIC90,[3],8 µg/mL
same,MIC,[3],8 µg/mL
same,MIC90,[3]; read-out: MIC90 for doxycycline-susceptible organisms,0.125 µg/mL
same,MIC,[10],0.125 µg/mL
same,MIC,[10]; Brucella suis,0.063 µg/mL
same,MIC Range,[4],0.016 to 4 µg/mL
same,MICs for isolates with tetM,[4],4 µg/mL
same,MICs for isolates without tetM,[4],0.016 to 0.063 µg/mL
same,MIC50,[4]; Metamycoplasma hominis,0.032 µg/mL
same,MIC90,[4]; Metamycoplasma hominis,4 µg/mL
same,MIC,[11],1 µg/mL
same,MIC,[11]; Yersinia pestis,0.5 µg/mL
same,MIC,[6]; Bacillus anthracis,≤ 0.031 µg/mL
